This is an account of results in PubChem BioAssay (NCI).

Among the test systems are MOLT-4 leukemia; OVCAR-8 ovarian; SNB-19 CNS; RXF 393 renal; A549 NSCLC; SK-MEL-2 melanoma; UACC-257 melanoma; HCC-2998 colon; A498 renal; SK-MEL-5 melanoma.
Holding throughout (test): inhibition of tumour cell growth, NCI panel, 48 h

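Following 48 hours of exposure in 96-well plates, responses at five concentrations were used to interpolate endpoints linearly. GI50 is the concentration that inhibits growth by half. TGI denotes the concentration required for complete inhibition of growth.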 Where only a bound is given, the exact number is not on record here.

As for `COc1cc2nnn3c4ncccc4c(N=O)c3c2cc1OC`, the TGI was above 100 µM in the test on MOLT-4 leukemia; above 100 µM with OVCAR-8 ovarian; above 74 µM in the test on SNB-19 CNS; above 69.2 µM in the test with A549 NSCLC; above 68.1 µM in the test on SK-MEL-2 melanoma; above 100 µM with UACC-257 melanoma. Besides, the TGI came to 10.8 µM in the test on HCC-2998 colon, 35.3 µM in the test on A498 renal and 34 µM in the test with SK-MEL-5 melanoma. Further, the GI50 is 1.77 µM in the test with OVCAR-8 ovarian; 9.75 µM with SNB-19 CNS; 0.989 µM with RXF 393 renal; 18.2 µM in the test with A549 NSCLC; 16.5 µM in the test with SK-MEL-2 melanoma; 8.56 µM with UACC-257 melanoma. Moreover, the GI50 is 2.28 µM with HCC-2998 colon, 15.1 µM in the test with A498 renal and 14.6 µM in the test on SK-MEL-5 melanoma.

With `CCOCNc1ccc(N2C(=O)/C(=C/c3ccc(N(CC)CC)cc3)N=C2c2ccccc2)cc1`, the GI50 in the test with MOLT-4 leukemia was 4.57 µM; with OVCAR-8 ovarian it was 10.8 µM; with SNB-19 CNS it was 7.57 µM; in the test on RXF 393 renal, 4.23 µM; in the test on A549 NSCLC, 11.4 µM; with SK-MEL-2 melanoma, 13.7 µM. For the same compound, the GI50 is above 100 µM with UACC-257 melanoma, above 100 µM in the test on HCC-2998 colon, 35.4 µM in the test on A498 renal and 22.9 µM with SK-MEL-5 melanoma. Moreover, the TGI in the test with MOLT-4 leukemia was above 100 µM; in the test on OVCAR-8 ovarian, above 100 µM; in the test on SNB-19 CNS, 55.3 µM; with RXF 393 renal it was 17.4 µM; in the test with A549 NSCLC, above 100 µM; in the test with SK-MEL-2 melanoma, 31 µM. For the same compound, the TGI in the test on UACC-257 melanoma, in the test on HCC-2998 colon, in the test on A498 renal and with SK-MEL-5 melanoma was above 100 µM in each case.
